“And” between values parts separate entries of the source, which are not always exact repeats. Equal values may be shown once. Read-outs that look alike come from different tables or passages of the source.
What was measured:
[1] = Mouse pharmacokinetics after 5-day oral dosing; conditions: for AUC0-tlast / AUC0-∞: fexinidazole 200 mg/kg/day po, Day 5; for Cmax / Tmax / half-life: male, NMRI, mouse, plasma, po, 200 mg/kg/day
Procedure: The study was conducted according to the study protocol [1].
gavage daily for 5 consecutive days at a dose of 200 mg/kg in a 5 % tween 80/ 0.5 %
Formulation Preparation and Concentration Check
were prepared according to the procedure already developed [2]; a sufficient volume of each
suspension was prepared in order to support the 5-day repeated oral administration. The
suspensions were stored at +4°C. The supportive stability data for the Fexinidazole
suspension after 7 days at +4°C was performed.
a specific, not validated, HPLC-UV method [2]. Three samples were analyzed for each
Sample Collection and Handling
About 0.05-0.07 mL of blood/sampling time were taken from the saphenous vein using
heparinized tubes (pre-cooled in an ice/water bath) and were centrifuged at 10000g for 3
minutes at 4°C. The separated plasma was stored at -80°C until analysis. Blood was taken at
validated LC-MS-MS methods.
Pharmacokinetic Calculations
Pharmacokinetic evaluation was carried out using a non-compartmental approach with the
aid of the Watson package (v. 6.4.0.04, Thermo Fisher Scientific, Waltham, MA, USA).
For the calculations, pre-dose concentrations of both compounds were set equal to zero.
After both compounds, on Day 5, Cmax and tmax were read from the raw plasma data as the
coordinates of the highest measured concentration. The area under plasma concentration vs.
time curve to finite time, AUC0-t(last), was determined by the linear trapezoidal rule up to the
last detectable concentration. The half-life of the terminal phase, t1/2,z, was determined by
linear regression analysis of the natural-log concentration vs. time curve, where t1/2,z =
ln(2)/slope of the regression line.
Descriptive statistics (mean ± SD, %CV) were reported for plasma concentrations and
pharmacokinetic parameters sorted by compound.
reported to three significant figures.
Plasma concentrations of sulphoxide and sulphone Fexinidazole metabolites were determined
by a LC-MS-MS method. The lower limit of the bioanalytical method was 5 ng/mL (run 1)
(v. 6.4.0.04, Thermo Fisher Scientific, Waltham, MA, USA).
Pharmacokinetic evaluations of the sulphone and sulphoxide metabolites were carried out
using non-compartmental approach with the aid of the Watson package (v. 6.4.0.04, Thermo
Fisher Scientific, Waltham, MA, USA).
After both doses, for the calculations, the pre-dose concentrations of the metabolites were set
Cmax and tmax were read from raw data as the coordinates of the highest measured

[2] = Mouse single-dose plasma pharmacokinetics; assay type: in vivo; conditions: plasma, plasma
Procedure: Blood samples were taken via into heparinised collection tubes and, following centrifugation, plasma was removed and stored frozen until required for assay.
All PK evaluations were carried out using validated high performance liquid chromatography (HPLC) and LC-MS assays, as per standard operating procedures of the laboratories involved.
One mouse PK and brain sampling study was carried out by BioDynamics Ltd., Rushden, UK, according to internal Standard Operating Procedures as a non-GLP regulated study, and animals were maintained as required by the “Code of practice for the housing and care of animals used in scientific procedures” (Home Office, London, 1989).
(§1) BioDynamics Study No: DND/01
(§2) Two groups of female mice were dosed as follows:
(§3) Number Treatment Dose (mg/kg) Route
(§4) All doses are expressed as free base
(§5) Intravenous doses were administered into a lateral tail vein using an appropriately sized syringe and 25G needle and the oral formulation by oral gavage using a polypropylene gavage tube. All doses were given as a single bolus dose at a constant dose volume of 10.0 mL/kg.
(§6) 1.6 Blood sample collection
(§7) At each sampling time point, three animals in each treatment group were deeply anaesthetised using isoflurane and blood samples (approximately 1 mL) taken into individual heparinised tubes by cardiac puncture, following which the animals were killed by cervical fracture. Samples were collected at the following times post-dose:
(§8) Following collection, the blood samples were centrifuged (approximately 10000 g, 2 min at 4 °C) and the plasma retained as one aliquot at approximately -70°C prior to analysis of test material concentrations at BioDynamics by LC-MS/MS.
(§9) 1.7 Collection of terminal brain samples
(§10) Following collection of the terminal blood sample the cranium of each mouse was carefully opened and the brain removed. Excess blood was washed from the brain with distilled water and any excess fluid blotted on absorbent paper. The brain was then snap frozen using liquid nitrogen and placed into a suitably labelled container and stored frozen at approximately -70°C pending analysis.
(§11) All of the plasma samples together with the brains from the 15 minute time point were analysed for concentrations of the test material and its sulfone and sulfoxide metabolites. In addition the brains from the 5 and 30 minute time points for the intravenously treated and the 30 and 60 minute time points for the orally treated animals were analysed for concentrations of Fexinidazole and its sulfone and sulfoxide metabolites using an LC-MS/MS method developed at BioDynamics.
(§12) All samples were treated as temperature sensitive. Blood samples were collected onto wet ice, followed by centrifugation at 4 °C. Plasma and brain samples were snap frozen on dry ice (plasma) or liquid nitrogen (brains) prior to long term storage at less than -70 °C pending analysis.
Summed transitions were used to enhance sensitivity. No instability of the test materials was noted during the course of analysis or on re-injection of the samples into the mass spectrometer under the […]
3. Pharmacokinetic analysis
The plasma concentration vs time curves obtained following intravenous and oral administration of the test compounds to female mice were analysed using WinNonLin (Version 4.1, Scientific Consulting
Inc. USA). The kinetic data were characterised by a non-compartmental analysis (NCA).
The following pharmacokinetic parameters were derived from the profiles: maximum peak plasma concentration (Cmax); the time of maximum observed concentration (Tmax); the terminal half life (T½), and area under the plasma concentration curve (AUC), 3.1.1 Area under the curve (AUC)
The AUC was determined using the linear/log trapezoidal method. A value of zero was used for any plasma concentrations recorded as below the limits of quantification (LLOQ). The AUCinf (observed) was calculated as the area under the curve from the time of dosing extrapolated to time infinity based on the observed concentrations. The AUClast was also determined. […]

L-6 rat myoblast cells = test: Cytotoxicity assay; assay type: cell-based; conditions: 72 h, read-out: IC50
Procedure: (§13) 10 µL of Alamar Blue was added for the final 3 h to determine viability. […] The IC50 values were calculated from the sigmoidal inhibition curves. For cytotoxicity, 4×10^4/mL L-6 rat skeletal myoblast cells were used, and incubations and assessments carried out as above.

[3] = Mouse brain concentrations; assay type: in vivo; conditions: for concentration at 60 min / concentration at 30 min / Kp at 5 min / Kp at 30 min / Kp at 60 min / concentration at 5 min: female, NMRI, mouse; for Kp at 5 min / Kp at 30 min / Kp at 60 min: read-out: Mean plasma:brain ratio (plasma = 1.00)
Procedure: Following sacrifice, the cranium of mice was opened and the brain removed. Excess blood was washed from the brain with distilled water and any excess fluid blotted on absorbent paper. The brain was then snap frozen using liquid nitrogen and placed into a suitably labelled container and stored at approximately −70°C, pending analysis. Brains were homogenized and extracted samples were prepared appropriately for analysis via liquid chromatography-mass spectrometry (LC-MS).
as §1, §2, §3, §4, §5, §6, §7, §8, §9, §10, §11, §12

[4] = test system: T. b. rhodesiense (STIB 900); test: In vitro trypanocidal assay (Alamar Blue); assay type: cell-based, Trypanosoma brucei rhodesiense; conditions: Trypanosoma brucei, 72 h; read-out: IC50
Procedure: as §13

[5] = female, NMRI, mouse, iv, 1 mg/kg, fexinidazole 1 mg/kg iv, read-out: AUC0-24
[6] = female, NMRI, mouse, iv, 1 mg/kg, fexinidazole 1 mg/kg iv, read-out: Cmax
[7] = female, NMRI, mouse, po, 25 mg/kg, fexinidazole 25 mg/kg po, read-out: AUC0–24
[8] = female, NMRI, mouse, fexinidazole 1 mg/kg iv
[9] = female, NMRI, mouse, fexinidazole 25 mg/kg po
[10] = brain homogenate, oral, 25 mg/kg, fexinidazole 25 mg/kg po, 60 min, read-out: Brain homogenate concentration
[11] = brain, oral, 25 mg/kg, fexinidazole 25 mg/kg po, 30 min, read-out: Brain concentration
[12] = brain, oral, 25 mg/kg, fexinidazole 25 mg/kg po, 30 min, read-out: Brain homogenate concentration
[13] = brain, oral, 25 mg/kg, fexinidazole 25 mg/kg po, 60 min, read-out: Brain concentration
[14] = fexinidazole 25 mg/kg po, 30 min
[15] = fexinidazole 25 mg/kg po, 60 min

Cn1c([N+](=O)[O-])cnc1COc1ccc(S(C)(=O)=O)cc1 [Fexinidazole sulfone]
AUC0-tlast [1]: 1050 µg·h/mL
AUC0-∞ [1]: 1060 µg·h/mL
Cmax [1]: 77600 ng/mL
Tmax [1]: 3 h
half-life [1]: 2.75 h
AUC(0-t) [2, 5]: 7.99 µg·h/mL
Cmax [2, 6]: 511 ng/mL
AUC(0-t) [2, 7]: 96.3 µg·h/mL
Tmax [2, 8]: 2 h
AUC(0-inf) [2, 9]: 96.3 µg·h/mL
Tmax [2, 9]: 4 h
half-life [2, 9]: 1.7 h
bioavailability ([2]; female, NMRI, mouse, fexinidazole 25 mg/kg po vs 1 mg/kg iv): 48.8%
Cmax ([2]; fexinidazole 1 mg/kg iv): 790.4 ng/mL
Cmax ([2]; fexinidazole 25 mg/kg po, female NMRI mice, listed as Sulfone): 13651.3 ng/mL
Cmax ([2]; fexinidazole 25 mg/kg po, female NMRI mice, listed as Sulfone metabolite): 13651 ng/mL
Cmax ([2]; fexinidazole 25 mg/kg po, female NMRI mice, listed as sulfone): 6599.6 ng/mL
AUC0–24 ([2]; fexinidazole 25 mg/kg po, listed as Sulfone metabolite): 96.286 µg·h/mL
IC50 (L-6 rat myoblast cells): > 90 µg/mL and > 289 µM
concentration at 60 min [3, 10]: 394 ng/mL
concentration at 30 min [3, 11]: 468 ng/g
concentration at 30 min [3, 12]: 156 ng/mL
concentration at 60 min [3, 13]: 1180 ng/g
Kp at 5 min ([3]; brain, iv 1 mg/kg, 5 min): 0
Kp at 30 min ([3]; brain, iv 1 mg/kg, 30 min): 0
Kp at 30 min ([3]; brain, po 25 mg/kg, 30 min): 0.05
Kp at 60 min ([3]; brain, po 25 mg/kg, 60 min): 0.06
Brain homogenate concentration ([3]; fexinidazole 1 mg/kg iv, 5 min): BLQ
Brain homogenate concentration ([3]; fexinidazole 1 mg/kg iv, 30 min): BLQ
Brain concentration [3, 14]: 469 ± 222 ng/g
Brain concentration [3, 15]: 1183 ± 322 ng/g
IC50 [4]: 0.35 µg/mL to 0.4 µg/mL and 1.14 µM to 1.3 µM

Cn1c([N+](=O)[O-])cnc1COc1ccc([S+](C)[O-])cc1 (stereo not shown) [Fexinidazole sulfoxide]
AUC0-tlast [1]: 161 µg·h/mL
AUC0-∞ [1]: 197 µg·h/mL
Cmax [1]: 33600 ng/mL
Tmax [1]: 0.833 h
half-life [1]: 4.31 h
AUC(0-t) [2, 5]: 1.59 µg·h/mL
Cmax [2, 6]: 918 ng/mL
Cmax ([2]; female, NMRI, mouse, po, 25 mg/kg, fexinidazole 25 mg/kg po, female NMRI mice, read-out: Cmax): 14200 ng/mL
AUC(0-t) [2, 7]: 45 µg·h/mL
AUC(0-inf) [2, 8]: 1.56 µg·h/mL
Tmax [2, 8]: 0.25 h
half-life [2, 8]: 0.6 h
AUC(0-inf) [2, 9]: 45 µg·h/mL
Tmax [2, 9]: 0.5 h
half-life [2, 9]: 1 h
AUC0–24 ([2]; fexinidazole 25 mg/kg po, listed as Sulfoxide metabolite): 45.031 µg·h/mL
IC50 (L-6 rat myoblast cells): > 90 µg/mL and > 305 µM
concentration at 5 min ([3]; brain homogenate, intravenous, 1 mg/kg, fexinidazole 1 mg/kg iv, 5 min, read-out: Brain homogenate concentration): 39.9 ng/mL
concentration at 30 min ([3]; brain homogenate, intravenous, 1 mg/kg, fexinidazole 1 mg/kg iv, 30 min, read-out: Brain homogenate concentration): 57.6 ng/mL
concentration at 60 min [3, 10]: 1620 ng/mL
concentration at 5 min ([3]; brain, intravenous, 1 mg/kg, fexinidazole 1 mg/kg iv, 5 min, read-out: Brain concentration): 120 ng/g
concentration at 30 min ([3]; brain, intravenous, 1 mg/kg, fexinidazole 1 mg/kg iv, 30 min, read-out: Brain concentration): 173 ng/g
concentration at 30 min [3, 11]: 3310 ng/g
concentration at 30 min [3, 12]: 1100 ng/mL
concentration at 60 min [3, 13]: 4870 ng/g
Kp at 5 min ([3]; brain, iv 1 mg/kg, 5 min): 0.045
Kp at 30 min ([3]; brain, iv 1 mg/kg, 30 min): 0.064
Kp at 30 min ([3]; brain, po 25 mg/kg, 30 min): 0.078
Kp at 60 min ([3]; brain, po 25 mg/kg, 60 min): 0.12
Brain concentration [3, 14]: 3315 ± 1611 ng/g
Brain concentration [3, 15]: 4873 ± 2335 ng/g
IC50 [4]: 0.41 µg/mL to 0.49 µg/mL and 1.33 µM to 1.65 µM
